Assay: xn = mol fraction of the nth substance listed
Settings: 308.15 K, Liquid, Vibrating tube method

CCCCCCCC [octane] + c1ccccc1
mass density [kg/m3]
Settings | x1 = 0.1097 | x1 = 0.2036 | x1 = 0.2984 | x1 = 0.4069 | x1 = 0.5027 | x1 = 0.5904 | x1 = 0.6989 | x1 = 0.7964 | x1 = 0.904 | x1 = 1
100 kPa | 828.4 | 803.9 | 783 | 762.6 | 747 | 734.5 | 720.8 | 709.9 | 699.3 | 690.8
2130 kPa | 830.2 | 805.7 | 784.9 | 764.5 | 748.8 | 736.4 | 722.7 | 711.8 | 701.1 | 692.6
4150 kPa | 832 | 807.5 | 786.7 | 766.3 | 750.7 | 738.2 | 724.5 | 713.7 | 703 | 694.4
6180 kPa | 833.7 | 809.3 | 788.5 | 768.2 | 752.5 | 740 | 726.3 | 715.5 | 704.8 | 696.2
8210 kPa | 835.5 | 811.1 | 790.3 | 770 | 754.3 | 741.8 | 728.1 | 717.2 | 706.5 | 698
10230 kPa | 837.2 | 812.8 | 792 | 771.7 | 756.1 | 743.6 | 729.9 | 719 | 708.3 | 699.7
11250 kPa | 838 | 813.7 | 792.9 | 772.6 | 756.9 | 744.4 | 730.7 | 719.8 | 709.1 | 700.5
12260 kPa | 838.8 | 814.5 | 793.7 | 773.4 | 757.8 | 745.3 | 731.6 | 720.7 | 709.9 | 701.3
14290 kPa | 840.5 | 816.2 | 795.4 | 775.1 | 759.5 | 747 | 733.2 | 722.3 | 711.6 | 703
16310 kPa | 842.1 | 817.8 | 797 | 776.7 | 761.1 | 748.6 | 734.8 | 723.9 | 713.1 | 704.5
18340 kPa | 843.7 | 819.5 | 798.7 | 778.4 | 762.7 | 750.2 | 736.5 | 725.5 | 714.8 | 706.1
20370 kPa | 845.3 | 821 | 800.3 | 780 | 764.3 | – | – | – | – | –

Source: the NIST ThermoML archive (doi:10.1016/j.jct.2007.11.009)
